# Measured values as given in ChEMBL document CHEMBL5444388, “Affinity Phenotypic Cellular Literature for EUbOPEN Chemogenomic Library” (2024).
# Tests used:
# Format in all cases: functional, cell-based
# Design in all cases: recommended concentration 100 nM
# [1] = target: Centromere-associated protein E (Homo sapiens) (UniProt Q02224); assay: Affinity Phenotypic Cellular interaction: (Cell-growth inhibition assays (growth inhibitory effect colon cancer cell line A549)) EUB0000734a CENPE; conditions: Affinity Phenotypic Cellular Source Knowledge https://pubmed.ncbi.nlm.nih.gov/20167803/
# Sequence of Centromere-associated protein E (Homo sapiens) (Q02224 whole entry): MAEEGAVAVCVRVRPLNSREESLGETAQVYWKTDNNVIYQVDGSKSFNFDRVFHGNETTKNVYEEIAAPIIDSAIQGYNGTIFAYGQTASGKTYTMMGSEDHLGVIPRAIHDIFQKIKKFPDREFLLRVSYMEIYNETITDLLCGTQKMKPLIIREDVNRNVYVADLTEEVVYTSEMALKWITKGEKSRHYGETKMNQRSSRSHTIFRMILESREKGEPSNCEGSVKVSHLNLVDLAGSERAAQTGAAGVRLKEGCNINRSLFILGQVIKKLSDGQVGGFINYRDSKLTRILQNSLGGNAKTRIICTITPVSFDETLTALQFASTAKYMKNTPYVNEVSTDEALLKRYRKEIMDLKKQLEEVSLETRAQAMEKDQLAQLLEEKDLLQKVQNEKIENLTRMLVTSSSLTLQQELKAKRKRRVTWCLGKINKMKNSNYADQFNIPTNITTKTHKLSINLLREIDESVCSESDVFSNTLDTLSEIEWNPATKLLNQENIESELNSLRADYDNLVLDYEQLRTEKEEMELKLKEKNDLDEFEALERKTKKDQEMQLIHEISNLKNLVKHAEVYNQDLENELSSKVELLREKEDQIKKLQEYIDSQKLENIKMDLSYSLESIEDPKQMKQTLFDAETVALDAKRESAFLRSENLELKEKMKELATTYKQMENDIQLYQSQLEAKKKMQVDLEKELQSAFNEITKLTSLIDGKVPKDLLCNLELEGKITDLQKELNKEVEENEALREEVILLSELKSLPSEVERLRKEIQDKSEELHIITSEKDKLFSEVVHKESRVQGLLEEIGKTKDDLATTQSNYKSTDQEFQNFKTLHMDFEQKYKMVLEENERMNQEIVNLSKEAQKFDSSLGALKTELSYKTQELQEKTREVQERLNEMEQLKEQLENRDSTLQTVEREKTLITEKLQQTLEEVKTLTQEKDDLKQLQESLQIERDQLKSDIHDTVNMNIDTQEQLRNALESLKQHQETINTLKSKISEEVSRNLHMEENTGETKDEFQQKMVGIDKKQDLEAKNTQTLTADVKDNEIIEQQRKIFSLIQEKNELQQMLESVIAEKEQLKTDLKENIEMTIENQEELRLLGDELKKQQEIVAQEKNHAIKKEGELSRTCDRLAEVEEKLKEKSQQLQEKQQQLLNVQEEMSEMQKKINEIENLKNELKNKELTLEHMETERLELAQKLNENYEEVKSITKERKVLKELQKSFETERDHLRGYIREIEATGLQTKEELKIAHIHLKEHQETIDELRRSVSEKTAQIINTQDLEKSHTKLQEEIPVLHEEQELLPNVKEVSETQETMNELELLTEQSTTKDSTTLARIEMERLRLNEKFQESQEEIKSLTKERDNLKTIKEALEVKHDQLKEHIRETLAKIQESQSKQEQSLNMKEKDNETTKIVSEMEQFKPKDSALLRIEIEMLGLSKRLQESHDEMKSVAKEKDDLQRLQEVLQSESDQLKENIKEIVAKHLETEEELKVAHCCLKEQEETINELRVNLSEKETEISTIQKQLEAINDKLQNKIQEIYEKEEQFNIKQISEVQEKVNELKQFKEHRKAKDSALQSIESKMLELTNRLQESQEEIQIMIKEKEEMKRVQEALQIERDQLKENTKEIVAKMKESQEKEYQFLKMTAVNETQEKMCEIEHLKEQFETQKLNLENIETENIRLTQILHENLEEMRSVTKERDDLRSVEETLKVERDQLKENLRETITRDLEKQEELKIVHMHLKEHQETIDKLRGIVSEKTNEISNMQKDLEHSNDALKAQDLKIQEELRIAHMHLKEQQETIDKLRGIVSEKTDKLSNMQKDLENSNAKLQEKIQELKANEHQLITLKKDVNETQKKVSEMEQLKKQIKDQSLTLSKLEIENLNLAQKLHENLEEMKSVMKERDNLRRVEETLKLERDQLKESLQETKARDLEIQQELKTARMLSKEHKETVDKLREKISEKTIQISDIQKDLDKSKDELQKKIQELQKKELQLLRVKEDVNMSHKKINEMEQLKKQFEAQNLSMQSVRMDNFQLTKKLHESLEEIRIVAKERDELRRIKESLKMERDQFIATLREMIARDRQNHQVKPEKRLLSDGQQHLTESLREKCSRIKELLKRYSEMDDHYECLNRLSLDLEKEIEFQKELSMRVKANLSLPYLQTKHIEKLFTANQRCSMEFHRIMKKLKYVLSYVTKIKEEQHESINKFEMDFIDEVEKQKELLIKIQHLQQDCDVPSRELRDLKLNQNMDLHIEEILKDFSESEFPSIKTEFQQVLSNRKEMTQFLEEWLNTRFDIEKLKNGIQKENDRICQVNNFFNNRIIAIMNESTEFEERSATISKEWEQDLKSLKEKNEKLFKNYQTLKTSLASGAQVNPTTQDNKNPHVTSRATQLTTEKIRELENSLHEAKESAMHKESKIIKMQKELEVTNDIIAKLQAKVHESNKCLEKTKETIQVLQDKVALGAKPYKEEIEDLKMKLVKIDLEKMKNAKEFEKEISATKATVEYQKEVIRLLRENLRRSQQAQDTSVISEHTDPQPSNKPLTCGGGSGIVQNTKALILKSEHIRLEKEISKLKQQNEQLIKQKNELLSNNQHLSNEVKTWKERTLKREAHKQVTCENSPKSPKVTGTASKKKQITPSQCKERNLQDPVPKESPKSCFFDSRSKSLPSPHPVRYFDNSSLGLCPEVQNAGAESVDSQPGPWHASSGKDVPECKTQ
# [2] = target: Centromere-associated protein E (Homo sapiens) (UniProt Q02224); assay: Affinity Phenotypic Cellular interaction: (Cell-growth inhibition assays (growth inhibitory effect colon cancer cell line A673)) EUB0000734a CENPE; conditions: Affinity Phenotypic Cellular Source Knowledge https://pubmed.ncbi.nlm.nih.gov/20167803/
# [3] = target: Centromere-associated protein E (Homo sapiens) (UniProt Q02224); assay: Affinity Phenotypic Cellular interaction: (Cell-growth inhibition assays (growth inhibitory effect colon cancer cell line BV-173)) EUB0000734a CENPE; conditions: Affinity Phenotypic Cellular Source Knowledge https://pubmed.ncbi.nlm.nih.gov/20167803/
# [4] = target: Centromere-associated protein E (Homo sapiens) (UniProt Q02224); assay: Affinity Phenotypic Cellular interaction: (Cell-growth inhibition assays (growth inhibitory effect colon cancer cell line C3A)) EUB0000734a CENPE; conditions: Affinity Phenotypic Cellular Source Knowledge https://pubmed.ncbi.nlm.nih.gov/20167803/
# [5] = target: Centromere-associated protein E (Homo sapiens) (UniProt Q02224); assay: Affinity Phenotypic Cellular interaction: (Cell-growth inhibition assays (growth inhibitory effect colon cancer cell line C-4I)) EUB0000734a CENPE; conditions: Affinity Phenotypic Cellular Source Knowledge https://pubmed.ncbi.nlm.nih.gov/20167803/
# [6] = target: Centromere-associated protein E (Homo sapiens) (UniProt Q02224); assay: Affinity Phenotypic Cellular interaction: (Cell-growth inhibition assays (growth inhibitory effect colon cancer cell line CAL-54)) EUB0000734a CENPE; conditions: Affinity Phenotypic Cellular Source Knowledge https://pubmed.ncbi.nlm.nih.gov/20167803/
# [7] = target: Centromere-associated protein E (Homo sapiens) (UniProt Q02224); assay: Affinity Phenotypic Cellular interaction: (Cell-growth inhibition assays (growth inhibitory effect colon cancer cell line CAL-62)) EUB0000734a CENPE; conditions: Affinity Phenotypic Cellular Source Knowledge https://pubmed.ncbi.nlm.nih.gov/20167803/
# [8] = target: Centromere-associated protein E (Homo sapiens) (UniProt Q02224); assay: Affinity Phenotypic Cellular interaction: (Cell-growth inhibition assays (growth inhibitory effect colon cancer cell line CESS)) EUB0000734a CENPE; conditions: Affinity Phenotypic Cellular Source Knowledge https://pubmed.ncbi.nlm.nih.gov/20167803/
# [9] = target: Centromere-associated protein E (Homo sapiens) (UniProt Q02224); assay: Affinity Phenotypic Cellular interaction: (Cell-growth inhibition assays (growth inhibitory effect colon cancer cell line CHP-212)) EUB0000734a CENPE; conditions: Affinity Phenotypic Cellular Source Knowledge https://pubmed.ncbi.nlm.nih.gov/20167803/
# [10] = target: Centromere-associated protein E (Homo sapiens) (UniProt Q02224); assay: Affinity Phenotypic Cellular interaction: (Cell-growth inhibition assays (growth inhibitory effect colon cancer cell line COLO-320DM)) EUB0000734a CENPE; conditions: Affinity Phenotypic Cellular Source Knowledge https://pubmed.ncbi.nlm.nih.gov/20167803/
# [11] = target: Centromere-associated protein E (Homo sapiens) (UniProt Q02224); assay: Affinity Phenotypic Cellular interaction: (Cell-growth inhibition assays (growth inhibitory effect colon cancer cell line Detroit562)) EUB0000734a CENPE; conditions: Detroit 562, Affinity Phenotypic Cellular Source Knowledge https://pubmed.ncbi.nlm.nih.gov/20167803/
# [12] = target: Centromere-associated protein E (Homo sapiens) (UniProt Q02224); assay: Affinity Phenotypic Cellular interaction: (Cell-growth inhibition assays (growth inhibitory effect colon cancer cell line DLD-1)) EUB0000734a CENPE; conditions: Affinity Phenotypic Cellular Source Knowledge https://pubmed.ncbi.nlm.nih.gov/20167803/
# [13] = target: Centromere-associated protein E (Homo sapiens) (UniProt Q02224); assay: Affinity Phenotypic Cellular interaction: (Cell-growth inhibition assays (growth inhibitory effect colon cancer cell line DoTc2-4510)) EUB0000734a CENPE; conditions: Affinity Phenotypic Cellular Source Knowledge https://pubmed.ncbi.nlm.nih.gov/20167803/
# [14] = target: Centromere-associated protein E (Homo sapiens) (UniProt Q02224); assay: Affinity Phenotypic Cellular interaction: (Cell-growth inhibition assays (growth inhibitory effect colon cancer cell line HCC1954)) EUB0000734a CENPE; conditions: Affinity Phenotypic Cellular Source Knowledge https://pubmed.ncbi.nlm.nih.gov/20167803/
# [15] = target: Centromere-associated protein E (Homo sapiens) (UniProt Q02224); assay: Affinity Phenotypic Cellular interaction: (Cell-growth inhibition assays (growth inhibitory effect colon cancer cell line HCT-15)) EUB0000734a CENPE; conditions: Affinity Phenotypic Cellular Source Knowledge https://pubmed.ncbi.nlm.nih.gov/20167803/
# [16] = target: Centromere-associated protein E (Homo sapiens) (UniProt Q02224); assay: Affinity Phenotypic Cellular interaction: (Cell-growth inhibition assays (growth inhibitory effect colon cancer cell line HCT-8)) EUB0000734a CENPE; conditions: Affinity Phenotypic Cellular Source Knowledge https://pubmed.ncbi.nlm.nih.gov/20167803/
# [17] = target: Centromere-associated protein E (Homo sapiens) (UniProt Q02224); assay: Affinity Phenotypic Cellular interaction: (Cell-growth inhibition assays (growth inhibitory effect colon cancer cell line HOP-62)) EUB0000734a CENPE; conditions: Affinity Phenotypic Cellular Source Knowledge https://pubmed.ncbi.nlm.nih.gov/20167803/
# [18] = target: Centromere-associated protein E (Homo sapiens) (UniProt Q02224); assay: Affinity Phenotypic Cellular interaction: (Cell-growth inhibition assays (growth inhibitory effect colon cancer cell line HOS)) EUB0000734a CENPE; conditions: Affinity Phenotypic Cellular Source Knowledge https://pubmed.ncbi.nlm.nih.gov/20167803/
# [19] = target: Centromere-associated protein E (Homo sapiens) (UniProt Q02224); assay: Affinity Phenotypic Cellular interaction: (Cell-growth inhibition assays (growth inhibitory effect colon cancer cell line MV-4-11)) EUB0000734a CENPE; conditions: MV4-11, Affinity Phenotypic Cellular Source Knowledge https://pubmed.ncbi.nlm.nih.gov/20167803/
# [20] = target: Centromere-associated protein E (Homo sapiens) (UniProt Q02224); assay: Affinity Phenotypic Cellular interaction: (Cell-growth inhibition assays (growth inhibitory effect colon cancer cell line NCI-H2171)) EUB0000734a CENPE; conditions: Affinity Phenotypic Cellular Source Knowledge https://pubmed.ncbi.nlm.nih.gov/20167803/
# [21] = target: Centromere-associated protein E (Homo sapiens) (UniProt Q02224); assay: Affinity Phenotypic Cellular interaction: (Cell-growth inhibition assays (growth inhibitory effect colon cancer cell line OVCAR-5)) EUB0000734a CENPE; conditions: Affinity Phenotypic Cellular Source Knowledge https://pubmed.ncbi.nlm.nih.gov/20167803/
# [22] = target: Centromere-associated protein E (Homo sapiens) (UniProt Q02224); assay: Affinity Phenotypic Cellular interaction: (Cell-growth inhibition assays (growth inhibitory effect colon cancer cell line PC-3)) EUB0000734a CENPE; conditions: Affinity Phenotypic Cellular Source Knowledge https://pubmed.ncbi.nlm.nih.gov/20167803/
# [23] = target: Centromere-associated protein E (Homo sapiens) (UniProt Q02224); assay: Affinity Phenotypic Cellular interaction: (Cell-growth inhibition assays (growth inhibitory effect colon cancer cell line Raji)) EUB0000734a CENPE; conditions: Affinity Phenotypic Cellular Source Knowledge https://pubmed.ncbi.nlm.nih.gov/20167803/
# [24] = target: Centromere-associated protein E (Homo sapiens) (UniProt Q02224); assay: Affinity Phenotypic Cellular interaction: (Cell-growth inhibition assays (growth inhibitory effect colon cancer cell line RD)) EUB0000734a CENPE; conditions: Affinity Phenotypic Cellular Source Knowledge https://pubmed.ncbi.nlm.nih.gov/20167803/
# [25] = target: Centromere-associated protein E (Homo sapiens) (UniProt Q02224); assay: Affinity Phenotypic Cellular interaction: (Cell-growth inhibition assays (growth inhibitory effect colon cancer cell line RXF393)) EUB0000734a CENPE; conditions: RXF 393, Affinity Phenotypic Cellular Source Knowledge https://pubmed.ncbi.nlm.nih.gov/20167803/
# [26] = target: Centromere-associated protein E (Homo sapiens) (UniProt Q02224); assay: Affinity Phenotypic Cellular interaction: (Cell-growth inhibition assays (growth inhibitory effect colon cancer cell line SCC-25)) EUB0000734a CENPE; conditions: Affinity Phenotypic Cellular Source Knowledge https://pubmed.ncbi.nlm.nih.gov/20167803/
# [27] = target: Centromere-associated protein E (Homo sapiens) (UniProt Q02224); assay: Affinity Phenotypic Cellular interaction: (Cell-growth inhibition assays (growth inhibitory effect colon cancer cell line SF-295)) EUB0000734a CENPE; conditions: Affinity Phenotypic Cellular Source Knowledge https://pubmed.ncbi.nlm.nih.gov/20167803/
# [28] = target: Centromere-associated protein E (Homo sapiens) (UniProt Q02224); assay: Affinity Phenotypic Cellular interaction: (Cell-growth inhibition assays (growth inhibitory effect colon cancer cell line SF-539)) EUB0000734a CENPE; conditions: Affinity Phenotypic Cellular Source Knowledge https://pubmed.ncbi.nlm.nih.gov/20167803/
# [29] = target: Centromere-associated protein E (Homo sapiens) (UniProt Q02224); assay: Affinity Phenotypic Cellular interaction: (Cell-growth inhibition assays (growth inhibitory effect colon cancer cell line SK-NEP-1)) EUB0000734a CENPE; conditions: Affinity Phenotypic Cellular Source Knowledge https://pubmed.ncbi.nlm.nih.gov/20167803/
# [30] = target: Centromere-associated protein E (Homo sapiens) (UniProt Q02224); assay: Affinity Phenotypic Cellular interaction: (Cell-growth inhibition assays (growth inhibitory effect colon cancer cell line SN12C)) EUB0000734a CENPE; conditions: Affinity Phenotypic Cellular Source Knowledge https://pubmed.ncbi.nlm.nih.gov/20167803/
# [31] = target: Centromere-associated protein E (Homo sapiens) (UniProt Q02224); assay: Affinity Phenotypic Cellular interaction: (Cell-growth inhibition assays (growth inhibitory effect colon cancer cell line SNB-19)) EUB0000734a CENPE; conditions: Affinity Phenotypic Cellular Source Knowledge https://pubmed.ncbi.nlm.nih.gov/20167803/
# [32] = target: Centromere-associated protein E (Homo sapiens) (UniProt Q02224); assay: Affinity Phenotypic Cellular interaction: (Cell-growth inhibition assays (growth inhibitory effect colon cancer cell line SNU-423)) EUB0000734a CENPE; conditions: Affinity Phenotypic Cellular Source Knowledge https://pubmed.ncbi.nlm.nih.gov/20167803/
# [33] = target: Centromere-associated protein E (Homo sapiens) (UniProt Q02224); assay: Affinity Phenotypic Cellular interaction: (Cell-growth inhibition assays (growth inhibitory effect colon cancer cell line SNU-475)) EUB0000734a CENPE; conditions: Affinity Phenotypic Cellular Source Knowledge https://pubmed.ncbi.nlm.nih.gov/20167803/
# [34] = target: Centromere-associated protein E (Homo sapiens) (UniProt Q02224); assay: Affinity Phenotypic Cellular interaction: (Cell-growth inhibition assays (growth inhibitory effect colon cancer cell line SW1088)) EUB0000734a CENPE; conditions: Affinity Phenotypic Cellular Source Knowledge https://pubmed.ncbi.nlm.nih.gov/20167803/
# [35] = target: Centromere-associated protein E (Homo sapiens) (UniProt Q02224); assay: Affinity Phenotypic Cellular interaction: (Cell-growth inhibition assays (growth inhibitory effect colon cancer cell line SW1990)) EUB0000734a CENPE; conditions: Affinity Phenotypic Cellular Source Knowledge https://pubmed.ncbi.nlm.nih.gov/20167803/
# [36] = target: Centromere-associated protein E (Homo sapiens) (UniProt Q02224); assay: Affinity Phenotypic Cellular interaction: (Cell-growth inhibition assays (growth inhibitory effect colon cancer cell line SW480)) EUB0000734a CENPE; conditions: Affinity Phenotypic Cellular Source Knowledge https://pubmed.ncbi.nlm.nih.gov/20167803/
# [37] = target: Centromere-associated protein E (Homo sapiens) (UniProt Q02224); assay: Affinity Phenotypic Cellular interaction: (Cell-growth inhibition assays (growth inhibitory effect colon cancer cell line SW837)) EUB0000734a CENPE; conditions: Affinity Phenotypic Cellular Source Knowledge https://pubmed.ncbi.nlm.nih.gov/20167803/
# [38] = target: Centromere-associated protein E (Homo sapiens) (UniProt Q02224); assay: Affinity Phenotypic Cellular interaction: (Cell-growth inhibition assays (growth inhibitory effect colon cancer cell line T-47D)) EUB0000734a CENPE; conditions: T47D, Affinity Phenotypic Cellular Source Knowledge https://pubmed.ncbi.nlm.nih.gov/20167803/
# [39] = target: Centromere-associated protein E (Homo sapiens) (UniProt Q02224); assay: Affinity Phenotypic Cellular interaction: (Cell-growth inhibition assays (growth inhibitory effect colon cancer cell line UACC-257)) EUB0000734a CENPE; conditions: Affinity Phenotypic Cellular Source Knowledge https://pubmed.ncbi.nlm.nih.gov/20167803/
smiles,measurement,setting,value
CC(C)Oc1ccc(C(=O)N[C@H](CNC(=O)CN(C)C)Cc2ccc(-c3cn4cccc([C@H](C)O)c4n3)cc2)cc1Cl,GIC50,[1],21 nM
same,GIC50,[2],23 nM
same,GIC50,[3],56 nM
same,GIC50,[4],54 nM
same,GIC50,[5],42 nM
same,GIC50,[6],49 nM
same,GIC50,[7],30 nM
same,GIC50,[8],19 nM
same,GIC50,[9],34 nM
same,GIC50,[10],306 nM
same,GIC50,[11],35 nM
same,GIC50,[12],60 nM
same,GIC50,[13],33 nM
same,GIC50,[14],18 nM
same,GIC50,[15],151 nM
same,GIC50,[16],35 nM
same,GIC50,[17],20 nM
same,GIC50,[18],27 nM
same,GIC50,[19],29 nM
same,GIC50,[20],24 nM
same,GIC50,[21],34 nM
same,GIC50,[22],28 nM
same,GIC50,[23],41 nM
same,GIC50,[24],28 nM
same,GIC50,[25],32 nM
same,GIC50,[26],23 nM
same,GIC50,[27],35 nM
same,GIC50,[28],28 nM
same,GIC50,[29],55 nM
same,GIC50,[30],29 nM
same,GIC50,[31],28 nM
same,GIC50,[32],34 nM
same,GIC50,[33],26 nM
same,GIC50,[34],32 nM
same,GIC50,[35],127 nM
same,GIC50,[36],33 nM
same,GIC50,[37],33 nM
same,GIC50,[38],29 nM
same,GIC50,[39],32 nM
